The target of the assay is T1, human olfactory receptor OR7D4 (Homo sapiens, UniProt Q8NG98).
T1 construct: transfected with a plasmid containing CRE-luciferase and a plasmid containing OR7D4; expressed in transfected cells; host or cells: HEK293T stably expressing olfactory chaperone proteins of the RTP family
T1 sequence (Q8NG98 1-312): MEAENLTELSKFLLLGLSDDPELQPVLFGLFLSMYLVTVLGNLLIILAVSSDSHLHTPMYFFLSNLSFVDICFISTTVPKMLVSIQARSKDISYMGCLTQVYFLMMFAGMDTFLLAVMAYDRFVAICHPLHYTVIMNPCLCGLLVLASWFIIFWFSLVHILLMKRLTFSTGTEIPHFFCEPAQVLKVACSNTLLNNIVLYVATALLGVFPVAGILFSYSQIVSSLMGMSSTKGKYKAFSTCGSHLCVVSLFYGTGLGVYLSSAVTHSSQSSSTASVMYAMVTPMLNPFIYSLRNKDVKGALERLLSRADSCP
Nature of the assay: OR7D4 luciferase gene reporter assay (antagonism of agonist-induced activation). To be noted: dose-response, luciferase assay; half decrease of the luciferase production obtained without antagonist; androstenone at 31.6 micromolar. It is filed as cell-based. Here is the method: Cells were maintained in minimal essential medium (EMEM, Lonza) containing 10% fetal bovine serum (M10). HEK293T stably expressing olfactory chaperone proteins from the RTP family as described in WO 2006/002161 (introduced here as a reference) were generated by transfecting HEK293T cells with expression vector containing the chaperone gene sequences and a resistance gene to puromycin, using Lipofectamine 2000. A recombinant cell population was selected by adding 10 μg/ml of puromycin into the culture medium. Monoclonal populations were further obtained by limit dilution procedure. Briefly, a cell suspension was diluted to contain 1 cell per ml and this dilution was dispatched in poly-D-lysine-coated 96 well plates (200 μl of dilution per well). After 5 days of culture, the presence and number of cell colonies per well was checked under a phase contrast microscope. After 5 additional days of culture, wells containing a single colony were harvested and each collected population was amplified independently.
The 5-alpha-androst-16-ene-3-one, used as an agonist of the human olfactory receptor OR7D4 and the tested molecules were diluted at a concentration of 1 mole/litre (M) into dimethyl sulfoxide (DMSO) to generate stock solutions.
For concentration-response analysis, serial dilutions of the tested molecules were prepared from stock solutions in EMEM plated into 96-well plates.
Briefly, cells were plated on poly-D-lysine-coated 96-well plates (BD Bioscience, Erembodegem-Dorp, Belgium) and transfected with a plasmid containing CRE-luciferase and a plasmid containing OR7D4. Sixteen hours after transfection, the culture medium was replaced by serum-free EMEM containing the tested ligands at a determined concentration. After four hours of incubation at 37° C. degree, cells were lysed and processed for luminescence measurement according to the manufacturer's protocols. Luminescence emission was recorded on a Spectra Max M5 reader (Molecular Devices, Sunnyvale, Calif.). Results were expressed as percentage of the response induced by 10 μM of the adenylate cyclase activator Forskolin.
The ability of the compounds of the invention to inhibit the activity of androstenone on OR7D4 receptor was assessed by the luciferase assay described above.
To determine whether a molecule antagonizes OR7D4, this compound was introduced in the incubation medium of the Luciferase assay described above at a concentration of either 316 μM, 100 μM or 31.6 μM, along with the known activator of the receptor 5α-androst-16-en-3-one at a concentration of 31.6 μM. Molecules were considered as “hits” i.e., as having an antagonist effect on the receptor, if they induced a decrease of at least 50% of the luciferase production elicited upon activation of OR7D4 by 5α-androst-16-en-3-one.
Putative antagonist molecule libraries containing compound 1 and other types of molecules were used to identify antagonist of the receptor OR7D4. The screening campaign was performed on the OR7D4 with a series of 112 putative antagonist molecules. In this screening campaign, compound 1 was identified as a hit.
The compound 1 was further confirmed as antagonist of OR7D4 by performing dose-response analysis using the luciferase assay. Different concentrations of compound 1, ranging from 31.6 nM to 1 mM were tested on HEK293 cell expressing OR7D4 and stimulated with 31.6 μM of 5α-androst-16-en-3-one.
The antagonistic property of compound 1 on OR7D4 was further confirmed by measuring the response of the OR7D4 to 5α-androsta-4,16-dien-3-one in presence of compound 1, using the luciferase assay as describe hereinabove. The observed inhibition was in the same range as the one observed when stimulating the receptor with 5α-androst-16-en-3-one.
To further explore the antagonism on OR7D4, a series of compounds structurally related to compound 1 were synthesized and assessed as antagonists of OR7D4 by dose-response analysis using the luciferase assay. […]
`CCCCCC(/C=C/C(=O)OCC)=C\c1ccc(F)cc1` [Compound 45, ethyl (E)-4-((E)-4-fluorobenzylidene)non-2-enoate]: the IC50 worked out at 4 µM.

Consider `CCCCCC(/C=C/C(=O)OCC)=C\c1ccccc1` [Compound 14], for which the IC50 turned out to be 14 µM. This IC50 is about 3.5-fold higher than that of the compound before.

`CCCCCCC(=C\c1ccc(C#N)cc1)/C=C(\C)C(=O)O` [Compound 19, (E)-4-((E)-4-cyanobenzylidene)-2-methyldec-2-enoic Acid]: the IC50 came out at 45 µM.

Consider `COc1cccc(/C=C/C=C(\C)C=O)c1` [Compound 36, (2E,4E)-5-(3-methoxyphenyl)-2-methylpenta-2,4-dienal], for which the IC50 turned out to be 79 µM.

In turn, `CCOc1ccccc1/C=C(/C=C(\C)C(=O)O)CC` [Compound 20] came in with an IC50 of 32 µM.

Take `CCCCCCC(/C=C/C=O)=C\c1ccccc1` [Compound 39, (E)-4-((E)-benzylidene)dec-2-enal]: the IC50 is 6 µM. This IC50 is about 5.3-fold lower than that of the compound before.

Take `CCCCCCC(/C=C/C(=O)O)=C\c1ccccc1` [Compound 22]: the IC50 was found to be 75 µM.

The compound `CCCCCCC(/C=C/C#N)=C\c1ccccc1` [Compound 16, 4-benzylidenedec-2-enenitrile] yielded an IC50 of 8 µM.

On to `CCCC(/C=C(\C)C=O)=C\c1ccccc1` [Compound 41], for which the IC50 was 187 µM. This IC50 is about 23-fold higher than that of the compound before.

With `CCCCCCC(/C=C/C(=O)OCC)=C\c1ccc(F)cc1` [Compound 5, ethyl (E)-4-((E)-4-fluorobenzylidene)dec-2-enoate], the IC50 was determined as 14 µM.

`CCOC(=O)/C(C)=C/C(=C/c1ccccc1)CC1CCCC1` [Compound 12] returned an IC50 of 8 µM. This IC50 is about 1.8-fold lower than that of the compound before.

“(E)-4-((E)-4-fluorobenzylidene)dec-2-enal [Compound 38]” registered an IC50 of 25 µM.

Consider `CCCC(/C=C/C(=O)OCC)=C\c1ccccc1` [Compound 15], for which the IC50 is 85 µM.

`CCCCCCC(/C=C/C(=O)OCC)=C\c1ccccc1` [Compound 13] came in with an IC50 of 7 µM.

In turn, `CCCCCCC(=C\c1ccccc1)/C=C(\C)C(N)=O` [Compound 23, (E)-4-((E)-benzylidene)-2-methyldec-2-enamide] gave an IC50 of 1 µM.

Regarding `CCOC(=O)/C(C)=C/C(=C/c1ccccc1OCC)CC` [Compound 6, ethyl (E)-4-((E)-2-ethoxybenzylidene)-2-methylhex-2-enoate], the IC50 turned out to be 25 µM.

Consider `CCc1cccc(/C=C(C)/C=C/C(=O)N(C)C)c1` [Compound 25, (2E,4E)-5-(3-ethylphenyl)-N,N,4-trimethylpenta-2,4-dienamide], for which the IC50 turned out to be 126 µM. This IC50 lies about 5-fold higher than the previous one.

`CCCCCC(/C=C(\C)C=O)=C\c1ccccc1` [Compound 40] showed an IC50 of 29 µM.

Regarding `CCCc1ccccc1/C=C/C=C/C(=O)OCC` [Compound 3, ethyl (2E,4E)-5-(2-propylphenyl)penta-2,4-dienoate], the IC50 turned out to be 50 µM.

In the case of `CCCCCCC(=C\c1ccccc1)/C=C(\C)C(=O)O` [Compound 21, 4-benzylidene-2-methyldec-2-enoic Acid], the IC50 was 62 µM.

Turning to `CCCCCCC(=C\c1ccccc1)/C=C(\C)C(=O)NC` [Compound 24, (E)-4-((E)-benzylidene)-N,2-dimethyldec-2-enamide], the IC50 came out at 2 µM.

Turning to `CCCCCCC(/C=C/C(=O)OC)=C\c1ccccc1` [Compound 10], the IC50 came out at 2 µM.

On to `CCCCCc1ccccc1/C=C/C=C/C(=O)OCC` [Compound 4, ethyl (2E,4E)-5-(2-pentylphenyl)penta-2,4-dienoate], for which the IC50 worked out at 16 µM.

`CCCCCC(/C=C/C(=O)OC)=C\c1ccc(F)cc1` [Compound 46, methyl (2E,4E)-4-(4-fluorobenzylidene)-2-nonenoate] had an IC50 of 25 µM. Against the preceding compound, the IC50 is about 1.6-fold higher.

In turn, `CCCCCCC(/C=C/C(N)=O)=C\c1ccccc1` [Compound 27] displayed an IC50 of 14 µM.

In turn, `COc1cccc(/C=C/C=C(\C)CO)c1` [Compound 31, (2E,4E)-5-(3-methoxyphenyl)-2-methylpenta-2,4-dien-1-ol] returned an IC50 of 63 µM.

`CCCCCCC(/C=C(\C)COC)=C\c1ccccc1` [Compound 42, ((E)-2-((E)-3-methoxy-2-methylprop-1-en-1-yl)oct-1-en-1-yl)benzene] gave an IC50 of 25 µM.

`CCCCCC(/C=C(\C)CO)=C\c1ccccc1` [Compound 34] registered an IC50 of 19 µM.

`CCCCCCC(/C=C/C(C)=O)=C\c1ccccc1` [Compound 30, (E)-5-((E)-benzylidene)undec-3-en-2-one]: the IC50 amounted to 6 µM. Compared with the last compound, the IC50 is about 3.2-fold lower.

Turning to `CCCCCCC(=C\c1ccccc1)/C=C(\C)C(=O)N(C)C` [Compound 28, (E)-4-((E)-benzylidene)-N,N,2-trimethyldec-2-enamide], the IC50 was determined as 2 µM.

Regarding `CCOC(=O)/C(C)=C/C(=C/c1ccccc1)C(C)CC(C)(C)C` (stereo not drawn) [Compound 11], the IC50 is 8 µM. Against the preceding compound, the IC50 is about 4-fold higher.

`CCCCCCC(=C\c1ccc(C#N)cc1)/C=C(\C)C(=O)OCC` [Compound 7, ethyl (E)-4-((E)-4-cyanobenzylidene)-2-methyldec-2-enoate] yielded an IC50 of 13 µM. Against the preceding compound, the IC50 is about 1.6-fold higher.

The compound `CCCCCCC(=C\c1ccccc1)/C=C(\C)C(C)=O` [Compound 29, 5-benzylidene-3-methylundec-3-en-2-one] registered an IC50 of 1 µM.

In turn, `CCCC(/C=C(\C)CO)=C\c1ccccc1` [Compound 35] gave an IC50 of 53 µM. Compared with the last compound, the IC50 is about 53-fold higher.

The compound `CCCCCCC(/C=C/CO)=C\c1ccc(F)cc1` [Compound 33, (E)-4-((E)-4-fluorobenzylidene)dec-2-en-1-ol] showed an IC50 of 18 µM.

On to `CCCCCCC(/C=C(\C)C#N)=C\c1ccccc1` [Compound 17], for which the IC50 is 12 µM.

For `CCCc1ccccc1/C=C/C=C/C=O` [Compound 37, (2E,4E)-5-(2-propylphenyl)penta-2,4-dienal], the IC50 came to 126 µM.

For `CCCCCCC(/C=C(\C)COCC)=C\c1ccc(F)cc1` [Compound 44, 1-((E)-2-((E)-3-ethoxy-2-methylprop-1-en-1-yl)oct-1-en-1-yl)-4-fluorobenzene], the IC50 was determined as 22 µM.

In the case of `CCCc1ccccc1/C=C/C=C/CO` [Compound 32, (2E,4E)-5-(2-propylphenyl)penta-2,4-dien-1-ol], the IC50 was 126 µM.

As for `CCOC(=O)/C(C)=C/C=C/c1cccc(OC)c1` [Compound 2, ethyl (2E,4E)-5-(3-methoxyphenyl)-2-methylpenta-2,4-dienoate], the IC50 stood at 25 µM.

Compound `CCCCCCC(/C=C(\C)COCC)=C\c1ccccc1` [Compound 43, ((E)-2-((E)-3-ethoxy-2-methylprop-1-en-1-yl)oct-1-en-1-yl)benzene] came in with an IC50 of 126 µM.

In turn, `C=CCCCCC(=C\c1ccccc1)/C=C(\C)C(=O)OCC` [Compound 8] gave an IC50 of 1 µM.

For the origin of these results see patent publication US11382848B2, “Compounds reducing malodour perception and the use thereof” (CHEMCOM S.A., priority 2017, dated 2022).
